Where two headings read alike, the source gives them in different places. Square brackets hold non-standard residues; d marks the D form. Peptide text beside a SMILES is read from it. pT = C[C@@H](OP(=O)(O)O)[C@H](N)C(=O)O; pS = N[C@@H](COP(=O)(O)O)C(=O)O
Legend:
Type in all cases: binding
aprataxin FHA domain = target: T1, aprataxin FHA domain (Homo sapiens, UniProt Q7Z2E3); test: NMR (1H-SOFAST-HMQC) titrations of aprataxin FHA domain with XRCC1 phosphopeptides; conditions: NMR titration, 22 °C
T1 construct: aprataxin residues 1–105; GST (pGEX-6P-1) (N, cleaved yes); made in house; host or cells: Escherichia coli BL21 (DE3)
T1 sequence (Q7Z2E3 15-119): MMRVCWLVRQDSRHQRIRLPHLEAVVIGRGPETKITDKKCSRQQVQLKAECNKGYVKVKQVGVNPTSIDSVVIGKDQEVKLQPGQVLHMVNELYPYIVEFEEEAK
Procedure: NMR experiments were carried out at 22 °C on Bruker Avance II+ 600 MHz and Avance III 700 MHz spectrometers, each equipped with a cryogenic triple-resonance probe. Protein and peptides were prepared in NMR buffer (20 mM Na Acetate pH 5.8, 50 mM NaCl, 2 mM DTT). Three-dimensional HNCA, HNCO, HNCACB and CBCA(CO)NH experiments were performed to obtain backbone assignments. NMR titration experiments were carried out by adding the unlabelled XRCC1 peptides to ^15N-labeled aprataxin FHA domain. The initial protein concentration was 92 μM and volumes of 2 mM stock solution of peptide were added until the protein:peptide ratio was 1:4. ^1H-SOFAST-HMQC [36] spectra were measured after each titration step. All spectra were processed using nmrPipe, and analysed using CARA/NEASY [38]. The weighted chemical shift change (in ppm units) of each amide proton (ΔδHN) and nitrogen (ΔδN) was calculated according to the equation: Δδtotal = [(ΔδHNWHN)^2 + (ΔδNWN)^2]^1/2 with WHN = 1 and WN = 0.154 [39]. Weighted chemical shifts for residues D37, V45, Q46, V61 and V63 were plotted against peptide concentration to determine individual Kds and averaged to determine the apparent Kd.

[1] = target: T2, wild-type aprataxin FHA domain (Homo sapiens, UniProt Q7Z2E3); test: ITC of wild-type aprataxin FHA domain with XRCC1 and XRCC4 phosphopeptides; conditions: 22 °C, 50 mM HEPES pH 7.5, 150 mM NaCl, 5 mM β-mercaptoethanol, peptide in syringe, XRCC1 peptides 1 mM into 100 μM protein, XRCC4 peptides 300 μM into 30 μM protein, single-site model, representative of triplicate
T2 construct: aprataxin residues 1–105; GST (pGEX-6P-1) (N, cleaved yes); made in house; host or cells: Escherichia coli BL21 (DE3)
T2 sequence (Q7Z2E3 15-119): as above
From the text: (§1) The genes for aprataxin residues 1–105 and APLF residues 1–106 were amplified using primer sets which incorporated 5′ BamHI and 3′ XhoI sites. PCR products and pGEX-6P-1 vector were digested with BamHI and XhoI and religated. All point mutations were generated using a QuickChange Site-Directed Mutagenesis Kit (Stratagene) following the manufacturer's recommended protocol.
(§2) For expression, the pGEX-6P-1/aprataxin-FHA constructs were transformed into Escherichia coli strain BL21 (DE3) and the pGEX-6P-1/APLF-FHA constructs transformed into the strain Rosetta2 (DE3). Cells were grown in LB at 37 °C to an A600 of 0.5, induced with 0.4 mM isopropyl 1-thio-β-D-galactopyranoside and incubated at 18 °C for a further 16 h before harvesting. Cells were lysed by sonication and clarified by centrifugation (20,000 × g × 30 min). The supernatant was applied to a glutathione-4B resin (Amersham) and cleaved from the resin with rhinovirus 3C protease. Proteins were purified further by gel-filtration chromatography on a Superdex 75 matrix in 20 mM Tris pH 7.5, 150 mM NaCl, 5 mM DTT. Selenomethionine-labelled APLF L91 M protein was expressed in Rosetta2 (DE3) cells cultured in SelenoMet base media and nutrients supplemented with seleno-methionine solution (Molecular Dimensions Ltd.) and purified as the wild-type protein.
(§3) Phosphopeptides based on the XRCC1 sequence 515-YAGSTDENTDSEEHQ-529 and the XRCC4 sequence 229-YDESTDEES-237 were synthesised with amidated C-termini to avoid potential end-effects of a free carboxy-terminus by Dr. W. Mawby (University of Bristol), purified by HPLC and characterised by mass spectrometry. FHA-phosphopeptide binding was quantified by isothermal titration calorimetry using a Microcal Omega VP-ITC calorimeter (MicroCal Inc., Northampton, MA). Protein was dialysed against ITC buffer (50 mM HEPES pH 7.5, 150 mM NaCl, 5 mM β-mercaptoethanol) and peptides were dissolved in the dialysis buffer. Experiments were carried out at 22 °C and involved 30 successive 10 μl injections of peptide solution into a sample cell containing protein solution. Titrations with XRCC1 peptides used peptide at 1 mM and protein at 100 μM and titrations with XRCC4 peptides used peptide at 300 μm and protein at 30 μM. Heats of dilution were subtracted and binding isotherms were plotted and analysed with MicroCal origin version 7.0, assuming a single-site binding model.

[2] = target: T3, R42A Mutant of aprataxin FHA domain (Homo sapiens, UniProt Q7Z2E3, R56A); test: ITC of R42A mutant of aprataxin FHA domain with XRCC1 and XRCC4 phosphopeptides; conditions: 22 °C, 50 mM HEPES pH 7.5, 150 mM NaCl, 5 mM β-mercaptoethanol, single-site model
T3 construct: aprataxin residues 1–105; GST (pGEX-6P-1) (N, cleaved yes); made in house; host or cells: Escherichia coli BL21 (DE3)
T3 sequence (Q7Z2E3 15-119 R56A): as the sequence (Q7Z2E3 15-119) above, with R42A counted along it
From the text: as §1, §2, §3

[3] = target: T4, K38A Mutant of aprataxin FHA domain (Homo sapiens, UniProt Q7Z2E3, K52A); test: ITC of K38A mutant of aprataxin FHA domain with XRCC1 and XRCC4 phosphopeptides; conditions: 22 °C, 50 mM HEPES pH 7.5, 150 mM NaCl, 5 mM β-mercaptoethanol, single-site model
T4 construct: aprataxin residues 1–105; GST (pGEX-6P-1) (N, cleaved yes); made in house; host or cells: Escherichia coli BL21 (DE3)
T4 sequence (Q7Z2E3 15-119 K52A): as the sequence (Q7Z2E3 15-119) above, with K38A counted along it
From the text: as §1, §2, §3

[4] = 20 mM Na Acetate pH 5.8, 50 mM NaCl, 2 mM DTT, 92 µM 15N aprataxin FHA, 2 mM peptide stock, read-out: Kd from weighted chemical shift of residue Asp37
[5] = pH 5.8, 92 µM aprataxin FHA, read-out: Kd from weighted chemical shift of residue Gln46
[6] = pH 5.8, 92 µM aprataxin FHA, read-out: Kd from weighted chemical shift of residue Val45
[7] = pH 5.8, 92 µM aprataxin FHA, read-out: Kd from weighted chemical shift of residue Val61
[8] = pH 5.8, 92 µM aprataxin FHA, read-out: Kd from weighted chemical shift of residue Val63

Structure (SMILES)	Kd (aprataxin FHA domain; [4]) [µM]	Kd (aprataxin FHA domain; [5]) [µM]	Kd (aprataxin FHA domain; [6]) [µM]	Kd (aprataxin FHA domain; [7]) [µM]	Kd (aprataxin FHA domain; [8]) [µM]	Kd (aprataxin FHA domain; pH 5.8, tighter binders not well defined due to high protein concentration, read-out: overall apparent affinity (Kdapp) estimated from NMR titrations) [µM]	Kd [1] [µM]	Kd [2] [µM]	Kd [3] [µM]
C[C@H](NC(=O)[C@@H](N)Cc1ccc(O)cc1)C(=O)NCC(=O)N[C@@H](CO)C(=O)N[C@H](C(=O)N[C@@H](CC(=O)O)C(=O)N[C@@H](CCC(=O)O)C(=O)N[C@@H](CC(N)=O)C(=O)N[C@H](C(=O)N[C@@H](CC(=O)O)C(=O)N[C@@H](CO)C(=O)N[C@@H](CCC(=O)O)C(=O)N[C@@H](CCC(=O)O)C(=O)N[C@@H](Cc1c[nH]cn1)C(=O)N[C@@H](CCC(N)=O)C(N)=O)[C@@H](C)OP(=O)(O)O)[C@@H](C)O [YAGSTDENpTDSEEHQ] (HELM PEPTIDE1{Y.A.G.S.T.D.E.N.[C[C@@H](OP(=O)(O)O)[C@H](N[*:1])C(=O)[*:2]].D.S.E.E.H.Q.[am]}$$$$V2.0)	7.6	5.9	9.8	4	7.9	7	42 ± 3.8	–	–
C[C@H](NC(=O)[C@@H](N)Cc1ccc(O)cc1)C(=O)NCC(=O)N[C@@H](CO)C(=O)N[C@H](C(=O)N[C@@H](CC(=O)O)C(=O)N[C@@H](CCC(=O)O)C(=O)N[C@@H](CC(N)=O)C(=O)N[C@H](C(=O)N[C@@H](CC(=O)O)C(=O)N[C@@H](COP(=O)(O)O)C(=O)N[C@@H](CCC(=O)O)C(=O)N[C@@H](CCC(=O)O)C(=O)N[C@@H](Cc1c[nH]cn1)C(=O)N[C@@H](CCC(N)=O)C(N)=O)[C@@H](C)OP(=O)(O)O)[C@@H](C)O [YAGSTDENpTDpSEEHQ] (HELM PEPTIDE1{Y.A.G.S.T.D.E.N.[C[C@@H](OP(=O)(O)O)[C@H](N[*:1])C(=O)[*:2]].D.[O=C([C@H](COP(=O)(O)O)N[*:1])[*:2]].E.E.H.Q.[am]}$$$$V2.0)	–	–	–	–	–	–	33 ± 0.87	–	–
C[C@H](NC(=O)[C@@H](N)Cc1ccc(O)cc1)C(=O)NCC(=O)N[C@@H](CO)C(=O)N[C@H](C(=O)N[C@@H](CC(=O)O)C(=O)N[C@@H](CCC(=O)O)C(=O)N[C@@H](CC(N)=O)C(=O)N[C@H](C(=O)N[C@@H](CC(=O)O)C(=O)N[C@@H](CO)C(=O)N[C@@H](CCC(=O)O)C(=O)N[C@@H](CCC(=O)O)C(=O)N[C@@H](Cc1c[nH]cn1)C(=O)N[C@@H](CCC(N)=O)C(N)=O)[C@@H](C)O)[C@@H](C)OP(=O)(O)O [YAGSpTDENTDSEEHQ] (HELM PEPTIDE1{Y.A.G.S.[C[C@@H](OP(=O)(O)O)[C@H](N[*:1])C(=O)[*:2]].D.E.N.T.D.S.E.E.H.Q.[am]}$$$$V2.0)	9.6	5.3	8.1	4.2	6.8	–	17 ± 0.4	≥ 100	46 ± 2
C[C@@H](OP(=O)(O)O)[C@H](NC(=O)[C@H](COP(=O)(O)O)NC(=O)[C@H](CCC(=O)O)NC(=O)[C@H](CC(=O)O)NC(=O)[C@@H](N)Cc1ccc(O)cc1)C(=O)N[C@@H](CC(=O)O)C(=O)N[C@@H](CCC(=O)O)C(=O)N[C@@H](CCC(=O)O)C(=O)N[C@@H](COP(=O)(O)O)C(N)=O [YDEpSpTDEEpS] (H-YDE[pS][pT]DEE[pS]-NH2)	–	–	–	–	–	–	0.14 ± 0.01	≥ 100	1.3 ± 0.05

Reference: publication PMC4655838, “Versatility in phospho-dependent molecular recognition of the XRCC1 and XRCC4 DNA-damage scaffolds by aprataxin-family FHA domains” (DNA Repair, 2015)
